Results: patent US7776862B2, “Pyridyl and phenyl substituted piperazine-piperidines with CXCR3 antagonist activity” (Schering Corporation, priority 2005, dated 2010)

Biological target: T1, human CXCR3 (N-delta 4) (Homo sapiens, UniProt P49682)
T1 construct: CD8 leader; Flag tag; expressed in transfected cells; membranes used
T1 sequence (P49682 5-368 limits assumed): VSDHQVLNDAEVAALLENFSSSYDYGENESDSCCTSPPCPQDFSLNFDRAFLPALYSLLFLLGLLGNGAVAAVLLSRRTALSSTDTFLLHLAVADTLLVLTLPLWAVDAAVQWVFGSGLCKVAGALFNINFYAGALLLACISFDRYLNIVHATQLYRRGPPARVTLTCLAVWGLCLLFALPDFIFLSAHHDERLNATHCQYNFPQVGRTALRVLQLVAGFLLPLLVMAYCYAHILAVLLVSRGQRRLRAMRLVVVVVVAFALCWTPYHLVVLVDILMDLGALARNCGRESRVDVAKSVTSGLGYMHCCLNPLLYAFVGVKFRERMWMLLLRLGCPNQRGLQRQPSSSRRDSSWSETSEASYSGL
Experiment: Human CXCR3 (N-delta 4) scintillation proximity assay (SPA), [125I] IP-10 binding
Details: IC50 rating; Ba/F3-hCXCR3 (N-delta 4) membranes, 25 pM [125I] IP-10
Text: The inventive compounds can readily be evaluated to determine activity at the CXCR3 receptors by known methods, such as, for example, development of a human CXCR3 (N-delta 4) Binding Assay.
Cloning and expression of human CXCR3 (N-delta 4):
The DNA encoding human CXCR3 was cloned by PCR using human genomic DNA (Promega, Madison, Wis.) as a template. The PCR primers were designed based on the published sequence of human orphan receptor GPR9 (1) with incorporated restriction sites, a Kozak consensus sequence, CD8 leader and Flag tag. The PCR product was subcloned into the mammalian expression vector pME18Sneo, a derivative of the SR-alpha expression vector (designated as pME18Sneo-hCXCR3 (N-delta 4).
IL-3-dependent mouse pro-B cells Ba/F3 were transfected by electroporation in 0.4 ml Dulbecco's PBS containing 4×10^6 cells with 20 μg of pME18Sneo-hCXCR3 (N-delta 4) plasmid DNA. Cells were pulsed at 400 Volts, 100 OHMs, 960 μFd. The transfected cells were under selection with 1 mg/ml G418 (Life Technologies, Gaithersburg, Md.). […] IP-10 (NEN Life Science Products, Boston, Mass.).
Preparation of Ba/F3-hCXCR3 (N-delta 4) membranes:
Ba/F3 cells expressing human CXCR3 (N-delta 4) were pelleted and resuspended in the lysis buffer containing 10 mM HEPES, pH 7.5 and Complete® protease inhibitors (1 tablet per 100 ml) (Boehringer Mannheim, Indianapolis, Ind.) at a cell density of 20×10^6 cells per ml. […] Large cellular debris was removed by centrifugation at 1,000×g. Cell membrane in the supernatant was sedimented at 100,000×g. The membrane was resuspended in the lysis buffer supplemented with 10% sucrose and stored at −80° C. Total protein concentration of the membrane was determined by BCA method from Pierce (Rockford, Ill.).
Human CXCR3 (N-delta 4) scintillation proximity assay (SPA):
The beads were spun down, washed once, resuspended in the binding buffer and transferred to a 96-well Isoplate (Wallac, Gaithersburg, Md.). […] IP-10 with tested compounds in a series of titration were added to start the reaction.

SMILES	IC50 [nM]
CC[C@H]1CN(c2ncc(CNC(=O)NN)cc2Cl)CCN1C1CCN(Cc2ccc(Cl)cc2F)CC1 [compound 401]	< 25
CCNC(=O)c1cnc(N2CCN(C3CCN(C(CC)c4ccc(Cl)cc4)CC3)[C@@H](C)C2)c(Cl)c1 (some centres unmarked) [compound 339]	> 100
O=C(NCc1ccc(Cl)cc1)c1cnc(N2CCN(C3CCN(Cc4ccc(Cl)cc4Cl)CC3)CC2)c(Cl)c1 [compound 13]	> 100
CNC(=O)c1cnc(N2CCN(C3CCN(C(=O)c4cc5cc(Cl)ccc5[nH]4)CC3)[C@@H](C)C2)c(Cl)c1 [compound 361]	> 100
O=C(NCc1ccc(Br)cc1)c1cnc(N2CCN(C3CCN(Cc4ccc(Br)cc4F)CC3)CC2)c(Cl)c1 [compound 36]	> 100
O=C(NCCc1c[nH]c2ccccc12)c1cnc(N2CCN(C3CCN(Cc4ccc(Cl)cc4)CC3)CC2)c(Cl)c1 [compound 364]	> 100
O=C(NCc1ccc(Br)cc1)c1cnc(N2CCN(C3CCN(Cc4ccc(Cl)c(F)c4)CC3)CC2)c(Cl)c1 [compound 293]	25 to 100
O=C(NCc1ccc(Cl)cc1F)c1cnc(N2CCN(C3CCN(Cc4ccc(F)cc4F)CC3)CC2)c(Cl)c1 [compound 88]	> 100
O=C(NCc1ccc(Cl)cc1Cl)c1cnc(N2CCN(C3CCN(Cc4ccc(F)cc4)CC3)CC2)c(Cl)c1 [compound 119]	25 to 100
CNC(=O)c1cnc(N2CCN(C3CCN(Cc4ccc(Cl)nc4)CC3)[C@@H](C)C2)c(Cl)c1 [compound 333]	> 100
O=C(NCc1ccc(F)cc1F)c1cnc(N2CCN(C3CCN(Cc4ccc(Br)cc4F)CC3)CC2)c(Cl)c1 [compound 20]	> 100
O=C(NCCCc1ccccc1)c1cnc(N2CCN(C3CCN(Cc4ccc(Cl)cc4)CC3)CC2)c(Cl)c1 [compound 82]	> 100
CCNC(=O)c1cnc(N2CCN(C3CCN(C(C)(C)c4ccc(Cl)cc4)CC3)[C@@H](C)C2)c(Cl)c1 [compound 326]	> 100
CC1(N2CCN(c3ncc(C(=O)NCc4ccc(F)c(F)c4)cc3Cl)CC2)CCN(Cc2ccc(Cl)cc2)CC1 [compound 207]	> 100
CC[C@H]1CN(c2ncc(CN)cc2Cl)CCN1C1CCN(Cc2ccc(Cl)cc2F)CC1 [compound 425]	25 to 100
O=C(NC1CCCC1)c1cnc(N2CCN(C3CCN(Cc4ccc(Cl)cc4)CC3)CC2)c(Cl)c1 [compound 168]	> 100
O=C(NCc1ccc(F)c(F)c1)c1cnc(N2CCN(C3CCN(Cc4ccc(Cl)c(F)c4)CC3)CC2)c(Cl)c1 [compound 121]	25 to 100
C[C@@H]1CN(c2ncc(C(=O)NCc3ccc(Cl)c(Cl)c3)cc2Cl)CCN1C1CCN(Cc2ccc(Cl)cc2)CC1 [compound 264]	< 25
N#Cc1ccc(CN2CCC(N3CCN(c4ncc(C(=O)NCc5ccc(Cl)c(Cl)c5)cc4Cl)CC3)CC2)cc1 [compound 317]	25 to 100
CCNC(=O)c1cnc(N2CCN(C3CCN(Cc4ccc(Cl)cc4)CC3C)[C@@H](C)C2)c(Cl)c1 (some centres unmarked) [compound 209]	< 25
CCNC(=O)c1cnc(N2CCN(C3CCN(Cc4ccc(Cl)cc4)CC3(C)C)CC2)c(Cl)c1 (centres unmarked) [compound 163]	< 25
CCNC(=O)c1cnc(N2C[C@H](CC)N(C3CCN(C(=O)c4ccc(Cl)cc4)CC3)C[C@H]2C)c(Cl)c1 [compound 256]	< 25
CCNCc1cnc(N2CCN(C3CCN(Cc4ccc(Cl)cc4F)CC3)[C@@H](CC)C2)c(Cl)c1 [compound 406]	< 25
CCCS(=O)(=O)NCc1cnc(N2CCN(C3CCN(Cc4ccc(Cl)cc4F)CC3)[C@@H](CC)C2)c(Cl)c1 [compound 388]	< 25
C[C@@H]1CN(c2ncc(C(=O)NCc3ccc(F)c(F)c3)cc2Cl)CCN1C1CCN(Cc2ccc(Cl)cc2)CC1 [compound 152]	25 to 100

SMILES	IC50 [nM]
CCNC(=O)c1cnc(N2CCN(C3CCN(C(C)c4ccc(Cl)cc4)CC3)[C@@H](C)C2)c(Cl)c1 (some centres unmarked) [compound 239]	< 25
N#Cc1ccc(CN2CCC(N3CCN(c4ncc(C(=O)NCc5ccc(Cl)cc5Cl)cc4Cl)CC3)CC2)cc1 [compound 69]	> 100
N#Cc1ccc(CN2CCC(N3CCN(c4ncc(C(=O)NCc5cc(Cl)cc(Cl)c5)cc4Cl)CC3)CC2)cc1 [compound 40]	> 100
C[C@H]1CN(c2ncc(C(=O)N3CCC3)cc2Cl)CCN1C1CCN(Cc2ccc(Cl)cc2)CC1 [compound 348]	> 100
O=C(NCc1cc(Cl)cc(Cl)c1)c1cnc(N2CCN(C3CCN(Cc4ccc(F)cc4F)CC3)CC2)c(Cl)c1 [compound 12]	> 100
O=C(NCCOc1ccccc1)c1cnc(N2CCN(C3CCN(Cc4ccc([N+](=O)[O-])cc4)CC3)CC2)c(Cl)c1 [compound 112]	25 to 100
N#Cc1ccc(CN2CCC(N3CCN(c4ncc(C(=O)NCc5ccc(Br)cc5)cc4Cl)CC3)CC2)cc1 [compound 114]	25 to 100
N#Cc1ccc(C(=O)N2CCC(N3CCN(c4ncc(C(=O)NCc5ccc(F)cc5)cc4Cl)CC3)CC2)cc1 [compound 19]	> 100
O=C(NCc1ccc(F)cc1)c1cnc(N2CCN(C3CCN(Cc4ccc([N+](=O)[O-])cc4)CC3)CC2)c(Cl)c1 [compound 272]	25 to 100
CC[C@H]1CN(c2ncc(CN/C(=N\C#N)NCC(F)(F)F)cc2Cl)CCN1C1CCN(Cc2ccc(Cl)cc2F)CC1 [compound 381]	< 25
O=C(NCc1ccc(Cl)c(Cl)c1)c1cnc(N2CCN(C3CCN(Cc4ccc(Cl)cc4)CC3)CC2)c(Cl)c1 [compound 286]	25 to 100
Cc1cc(C(=O)NCc2ccc(Cl)c(Cl)c2)cnc1N1CCN(C2CCN(Cc3ccc(Cl)cc3)CC2)CC1 [compound 201]	> 100
CC[C@H]1CN(c2ncc(CO)cc2Cl)CCN1C1CCN(C(=O)c2ccc(Br)cc2)CC1 [compound 418]	25 to 100
O=C(NCC1COc2ccccc2O1)c1cnc(N2CCN(C3CCN(Cc4ccc(Cl)cc4)CC3)CC2)c(Br)c1 (centres unmarked) [compound 176]	> 100
CNC(=O)c1cnc(N2CCN(C3CCN(Cc4ccc(Cl)cc4F)CC3)[C@@H](C)C2)c(Cl)c1 [compound 258]	< 25
CC[C@H]1CN(c2ncc(C(=O)C3CC3)cc2Cl)CCN1C1CCN(Cc2ccc(Cl)cc2F)CC1 [compound 419]	25 to 100
O=C(NCc1ccc(Cl)cc1F)c1cnc(N2CCN(C3CCN(Cc4ccc(Cl)cc4)CC3)CC2)c(Cl)c1 [compound 125]	25 to 100
O=C(NCc1cccc(F)c1)c1cnc(N2CCN(C3CCN(Cc4ccc(F)cc4)CC3)CC2)c(Cl)c1 [compound 29]	> 100
O=C(NCCOc1ccccc1)c1cnc(N2CCN(C3CCN(Cc4ccc(F)cc4F)CC3)CC2)c(Cl)c1 [compound 16]	> 100
CCNC(=O)c1cnc(N2CCN(C3CCN(Cc4ccc(Cl)cc4)CC3)[C@@H](C)C2)c(Cl)c1 [compound 227]	< 25
CCNC(=O)NCc1cnc(N2CCN(C3CCN(Cc4ccc(Cl)cc4)CC3)[C@@H](C)C2)c(Cl)c1 [compound 385]	< 25
N#Cc1ccc(CN2CCC(N3CCN(c4ncc(C(=O)NC5CCCC5)cc4Cl)CC3)CC2)cc1 [compound 190]	> 100
O=C(NCc1ccc(F)c(F)c1)c1cnc(N2CCN(C3CCN(CCOc4ccc(F)cc4)CC3)CC2)c(Cl)c1 [compound 346]	> 100
N#Cc1ccc(CN2CCC(N3CCN(c4ncc(C(=O)NCc5ccc(Cl)cc5F)cc4Cl)CC3)CC2)cc1 [compound 120]	25 to 100
CCNC(=O)c1cnc(N2C[C@H](C)N(C3CCN(Cc4ccc(Cl)cc4F)CC3)C[C@H]2C)c(Cl)c1 [compound 263]	< 25
